{"source": "patent US20200384072A1", "about": "“THERAPY OF IONIZING RADIATION-INDUCED DISORDERS” (SCK-CEN, priority 2019, published 2020)", "key": {"[1]": {"test_system": "TICAE cells", "test": "IGFBP-7 and GDF-15 multiplex-based assays, TICAE cells", "assay_type": "cell-based, human", "conditions": "7 d p.i.", "procedure": "TICAE and TIME cells were seeded in a 6-well plate at a density of 2.5×10^5 cells/well in 5 to 6 biological replicates. Two to three days later, cells reached 100% confluence. At 30 minutes before X-ray exposure, cells were refreshed with medium with or without 100 μM TAT-Gap19 (Genosphere Biotechnologies, Paris, France). At 24 h, 48 h, 72 h and 7 d after irradiation, the supernatant was collected. Medium was changed only for the 7 d time point experiment at the fourth day with fresh medium alone or with medium supplemented with 100 μM TAT-Gap19. For the simultaneous detection of multiple cytokines in the supernatants, the Magnetic Luminex® Assay (R&D systems, Minneapolis, […]) was used following manufacturer's instructions. Briefly, supernatants, standards and microparticles were incubated into a 96-well plate which was pre-coated with cytokine-specific antibodies. The immobilized antibodies were able to bind the cytokines of interest after 2 h incubation, then the plate was washed and incubation with a biotinylated antibody cocktail specific to the cytokines of interest was performed for 1 h. A second wash was performed to remove the unbound biotinylated antibodies. Further, a streptavidin-phycoerythrin conjugate was added to each well to bind to the biotinylated antibodies. After a final wash, the microparticles were resuspended in buffer and read using the Luminex® MAGPIX Analyzer (R&D systems, Minneapolis, […])."}, "[2]": {"test_system": "non-alcoholic fatty liver mouse model", "conditions": "cited from earlier work"}, "[3]": {"target": "T1, Cx43 hemichannels (Homo sapiens, UniProt P17302)", "T1 construct": "endogenous in cells; host or cells: TICAE and TIME cells (human endothelial cell lines)", "T1 sequence (P17302 whole entry)": "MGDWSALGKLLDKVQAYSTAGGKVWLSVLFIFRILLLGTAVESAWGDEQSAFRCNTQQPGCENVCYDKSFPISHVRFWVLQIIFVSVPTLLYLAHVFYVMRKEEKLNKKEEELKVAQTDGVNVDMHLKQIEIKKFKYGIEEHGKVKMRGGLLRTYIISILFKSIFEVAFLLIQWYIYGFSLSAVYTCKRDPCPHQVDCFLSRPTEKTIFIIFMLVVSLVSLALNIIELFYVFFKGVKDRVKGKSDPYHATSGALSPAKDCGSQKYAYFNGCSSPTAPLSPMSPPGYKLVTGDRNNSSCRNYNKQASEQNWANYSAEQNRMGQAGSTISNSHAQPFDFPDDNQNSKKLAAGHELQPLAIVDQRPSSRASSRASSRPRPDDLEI", "test": "Propidium iodide dye uptake assay after irradiation, TICAE cells", "assay_type": "cell-based", "description": "Hemichannel opening was also investigated by dye uptake studies making use of the hemichannel permeable fluorescent tracer propidium iodide (PI; MW 668.4 Da). In addition, dextran fluorescein 10 kDa dye was used to assess membrane integrity and occurrence of cell death. PI stains cells with open hemichannels, late apoptotic and necrotic cells, while dextran fluorescein only stains late apoptotic and necrotic cells. Therefore, PI-positive and dextran fluorescein-negative cells are a measure for hemichannel opening while dextran fluorescein-positive cells are a measure for dead cells.\nTICAE and TIME cells were seeded in a 24-well plate at a density of 1.25×10^5 and 1.5×10^5 cells/well, respectively, in six biological replicates. Three days later, cells reached 100% confluence. Thirty minutes before irradiation, cells were refreshed with 1 ml medium alone or with medium supplemented with 100 μM TAT-Gap19 (Genosphere Biotechnologies, Paris, France). For fractionated irradiation, cells were refreshed with 1.5 ml medium/well. At different time points after irradiation (1, 6 and 72 h), cells were washed twice with HMS supplemented with 25 mM HEPES (Sigma-Aldrich Co. LCC, Diegem, Belgium) (HBSS-HEPES). Afterwards, the cells were incubated with 1 mM PI and 200 μM dextran fluorescein (10 kDa) (Life Technologies, Merelbeke, Belgium), dissolved in HBSS-HEPES for 5 minutes followed by 5 times washing with MSS-HEPES. Finally, the fluorescence was measured using an IncuCyte ZOOM® system (Essen BioScience, Ann Arbor, Mich., USA) by using different channels (TRITC, FITC and phase contrast) and a 10× objective Fluorescence signal was normalized to cell number."}, "[4]": {"target": "hemichannels composed of Cx43 (Homo sapiens, UniProt P17302)", "sequence (P17302 whole entry)": "as above", "conditions": "cited from earlier work"}, "[5]": {"test_system": "RBE4 cells", "test": "Irradiation-induced ATP release, RBE4 cells", "assay_type": "cell-based, rat", "conditions": "broad-beam 1 Gy, 5 min post-irradiation, BAPTA-AM 10 μM, NALC 1 mM, c-PTIO 100 μM", "procedure": "ATP was measured using a luciferin-luciferase assay kit (Sigma-Aldrich) in combination with a luminometer plate reader (Victor3 1420 multi label counter; Perkin Elmer, Zaventem, Belgium).\nExtracellular ATP measurements were initially carried out at different time-points post-irradiation, the effect of blockers on ATP release was tested at the 5 min post-irradiation time-point (time of maximum ATP release)."}, "[6]": {"test_system": "RBE4 cells", "test": "γ-H2AX counts after local 3×3 mm X-ray irradiation (irradiated and bystander zones), RBE4 cells", "assay_type": "cell-based, rat", "conditions": "1 Gy, 3 h post-irradiation, Cbx 50 μM, Gap26 161 μM, TAT-Gap19 200 μM, Xestospongin C 5 μM", "procedure": "A defined area of the cell culture dishes were exposed to X-rays (1Gy or 20 Gy) by using a small animal radiation research platform (SARRP, Xstrahl, 220 kV, 13 mA), making use of a 3×3 mm collimator. Whole dish irradiation was done using a 10×10 cm broad-beam collimator, while localized Irradiation was performed with a 3×3 mm collimator. A Gafchromic RTQA2 film, with a sensitivity of 0.02 Gy, was placed underneath the cell dishes in order to delineate the irradiated zone.\nCells were fixed for 25 min with 4% formaldehyde (VWR) and blocked for 30 min with blocking buffer (5% normal goat serum, 1% bovine serum albumin (BSA), 0.2% Triton X-100 in PBS D+). Overnight incubation with primary antibody (1/500 anti-γ-H2AX in dilution buffer, 1/10 blocking buffer in PBS D+) was followed by a 1 h incubation with 1/400 XX-biotin-goat-anti-mouse antibody in dilution buffer, followed by a 1 h incubation with 1/400 streptavidin-alexa488 in PBS D+. Nuclei were stained with 1 μg/mL DAPI in PBS D+ for 10 min and cells were kept in PBS D+ supplemented with NaN3 at 4° C. All steps except the overnight incubation which was carried out at 4° C., were carried out at room temperature and cell cultures were rinsed thoroughly with PBS D+ between all incubation steps. Imaging was performed with an automated BD Pathway 435 imaging system (10× objective, 10×10 montage resulting in an overall image size of 8.5×6.5 mm). We then quantified the number of γ-H2AX-foci positive nuclei in the directly irradiated and bystander areas and expressed the count as a percentage relative to the number of nuclei and subtracted the percentage of background γ-H2AX signal in non-irradiated paired control cultures for each experiment. For counting γ-H2AX foci, images were thresholded to remove background pixel noise below the foci level. Where applicable, results were normalized against vehicle (bar charts with a 100% vehicle bar without statistical variability or a horizontal line)."}}}
{"substance": "TAT-Gap19: connexin mimetic peptide, amino-acids 128-136 of the CL of Cx43 (SEQ ID NO: 2), Gap19 linked to TAT sequence; Cx43 hemichannel inhibitor (YGRKKRRQRRRKQIEIKKFK)", "values": [{"measurement": "GDF-15", "setting": "[1]; 100 μM TAT-Gap19, 0, 0.1 and 5 Gy", "result": "significantly inhibited these responses in all treated conditions"}, {"measurement": "IGFBP-7", "setting": "[1]; 100 μM TAT-Gap19, 0.1 Gy", "result": "acted in a significantly inhibitory way"}, {"measurement": "IGFBP-7 (radiation-induced increase)", "setting": "[1]; 100 μM TAT-Gap19, 5 Gy", "result": "not inhibited"}, {"measurement": "IL-1B", "setting": "[2]", "result": "significantly decrease"}, {"measurement": "TNF-α", "setting": "[2]", "result": "significantly decrease"}, {"measurement": "radiation-induced PI dye uptake", "setting": "[3]; 100 μM TAT-Gap19, fractionated 5 Gy, 72 h", "result": "had no effect"}, {"measurement": "radiation-induced PI dye uptake", "setting": "[3]; 100 μM TAT-Gap19, single 5 Gy, 1 h p.i.", "result": "Significant inhibition"}, {"measurement": "radiation-induced PI dye uptake", "setting": "[3]; 100 μM TAT-Gap19, single irradiation, 72 h p.i.", "result": "most clear and significant at the 72 h p.i. time point"}, {"measurement": "half-time of Cx43 hemichannel block", "setting": "[4]", "result": 100, "unit": "s"}, {"measurement": "irradiation-induced ATP release", "setting": "[5]", "result": "inhibited"}, {"measurement": "γ-H2AX counts in the bystander zone (normalized to vehicle)", "setting": "[6]", "result": "significantly inhibited"}, {"measurement": "γ-H2AX counts in the irradiated zone (normalized to vehicle)", "setting": "[6]", "result": "significantly inhibited"}]}
